The source made the active and inactive calls. The calls are words filed in the database; no cut-off is given here.
Tests used:
[1] = tested on: Hepatitis B virus; assay: Antiviral activity against Hepatitis B virus infected in human HepG2.2.15 cells assessed as reduction in HBsAg level measured after 4 days by AlphaLisa assay; type: functional, organism-based; details: HepG2.2.15, 96 h
[2] = Cytotoxicity against human HepG2.2.15 cells assessed as reduction in cell viability measured after 4 days by CellTiter-Glo reagent based assay; set-up: species or system HepG2 2.2.15; details: time 4 day
[3] = 1-Octanol/saturated PBS buffer distribution coefficient, logD of the compound incubated for 1 hr by LC-MS/MS analysis; type: physicochemical
[4] = Apparent permeability across apical to basolateral side in MDCK-MDR1 cells at 1 uM measured after 120 mins by LC-MS/MS analysis; type: ADME, cell-based, Canis lupus familiaris; details: dog
[5] = Apparent permeability across basolateral to apical side in MDCK-MDR1 cells at 1 uM measured after 120 mins by LC-MS/MS analysis; type: ADME, cell-based, Canis lupus familiaris; details: dog
[6] = tested on: OATP1B3; assay: Ratio of drug uptake in HEK293 cells transfected with OATP1B3 (unknown origin) in absence of transporter inhibitor, estradiol-17beta-glucuronide to drug uptake in HEK293 cells in absence of transporter inhibitor, estradiol-17beta-glucuronide by LC-MS/MS analysis; type: ADME, cell-based; details: human, HEK293 cells transfected with OATP1B3 versus HEK293 cells
[7] = target: T1, Solute carrier organic anion transporter family member 1B3 (Homo sapiens, UniProt Q9NPD5); assay: Substrate activity at OATP1B3 (unknown origin) expressed in HEK293 cells assessed as ratio of drug uptake in absence of transporter inhibitor, estradiol-17beta-glucuronide to drug uptake in presence of transporter inhibitor, estradiol-17beta-glucuronide by LC-MS/MS analysis; type: ADME, cell-based
T1 sequence (Q9NPD5 whole entry): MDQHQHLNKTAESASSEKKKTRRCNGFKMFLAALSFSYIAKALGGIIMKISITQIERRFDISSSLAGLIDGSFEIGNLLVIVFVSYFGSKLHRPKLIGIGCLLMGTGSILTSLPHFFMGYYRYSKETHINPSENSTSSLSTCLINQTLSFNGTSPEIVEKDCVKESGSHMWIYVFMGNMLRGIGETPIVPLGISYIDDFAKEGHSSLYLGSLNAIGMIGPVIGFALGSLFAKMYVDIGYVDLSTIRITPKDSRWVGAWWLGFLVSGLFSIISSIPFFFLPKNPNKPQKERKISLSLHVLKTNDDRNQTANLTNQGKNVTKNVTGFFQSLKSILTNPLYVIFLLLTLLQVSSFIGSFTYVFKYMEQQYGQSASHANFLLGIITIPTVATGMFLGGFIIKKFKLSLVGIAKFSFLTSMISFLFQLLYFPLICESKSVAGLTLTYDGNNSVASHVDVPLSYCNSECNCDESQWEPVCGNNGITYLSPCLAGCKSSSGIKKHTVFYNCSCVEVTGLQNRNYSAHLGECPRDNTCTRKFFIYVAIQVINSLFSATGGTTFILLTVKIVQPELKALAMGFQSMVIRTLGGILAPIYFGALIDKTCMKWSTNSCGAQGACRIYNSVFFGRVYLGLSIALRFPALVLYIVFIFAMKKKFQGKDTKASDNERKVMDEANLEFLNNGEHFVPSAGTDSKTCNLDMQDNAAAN

[8] = tested on: Hepatitis B virus; assay: Antiviral activity against Hepatitis B virus infected in human HepG2.2.15 cells assessed as reduction in HBV pregenomic mRNA level at 1 uM measured after 5 days by Northern blot analysis; type: functional, organism-based; details: time 5.0 day
[9] = target: Terminal nucleotidyltransferase 4B (Homo sapiens) (UniProt Q8NDF8); assay: Inhibition of Myc-DDK-tagged human PAPD5 expressed in HEK293 cells assessed as inhibition of poly-adenylation reaction using P32-labeled RNA oligonucleotides (5'-GCCUUUCAUCUCUAACUGCGAAAAAAAAAA-3') as substrate measured for 20 mins by phosphor imaging analysis; details: dose 0.37-10 µM
[10] = target: Terminal nucleotidyltransferase 4A (Homo sapiens) (UniProt Q5XG87); assay: Inhibition of human PAPD7 expressed in HEK293 cells assessed as inhibition of poly-adenylation reaction using P32-labeled RNA oligonucleotides (5'-GCCUUUCAUCUCUAACUGCGAAAAAAAAAA-3') as substrate measured for 3 hrs by phosphor imaging analysis; type: cell-based; details: dose 0.37-10 µM
[11] = Efflux ratio of apparent permeability in MDCK-MDR1 cells at 1 uM after 120 mins by LC-MS/MS analysis; type: ADME, cell-based, Canis lupus familiaris; details: dog
[12] = tested on: Hepatitis B virus; assay: Antiviral activity against Hepatitis B virus infected in human HepG2.2.15 cells assessed as reduction in HBV subgenomic 2.4/2.1 kb mRNA level at 1 uM measured after 5 days by Northern blot analysis; type: functional, organism-based; details: time 5.0 day
[13] = target: T2, Solute carrier organic anion transporter family member 1B1 (Homo sapiens, UniProt Q9Y6L6); assay: Substrate activity at OATP1B1 (unknown origin) expressed in HEK293 cells assessed as ratio of drug uptake in absence of transporter inhibitor,estradiol-17beta-glucuronide to drug uptake in presence of transporter inhibitor, estradiol-17beta-glucuronide by LC-MS/MS analysis; type: ADME, cell-based
T2 sequence (Q9Y6L6 whole entry): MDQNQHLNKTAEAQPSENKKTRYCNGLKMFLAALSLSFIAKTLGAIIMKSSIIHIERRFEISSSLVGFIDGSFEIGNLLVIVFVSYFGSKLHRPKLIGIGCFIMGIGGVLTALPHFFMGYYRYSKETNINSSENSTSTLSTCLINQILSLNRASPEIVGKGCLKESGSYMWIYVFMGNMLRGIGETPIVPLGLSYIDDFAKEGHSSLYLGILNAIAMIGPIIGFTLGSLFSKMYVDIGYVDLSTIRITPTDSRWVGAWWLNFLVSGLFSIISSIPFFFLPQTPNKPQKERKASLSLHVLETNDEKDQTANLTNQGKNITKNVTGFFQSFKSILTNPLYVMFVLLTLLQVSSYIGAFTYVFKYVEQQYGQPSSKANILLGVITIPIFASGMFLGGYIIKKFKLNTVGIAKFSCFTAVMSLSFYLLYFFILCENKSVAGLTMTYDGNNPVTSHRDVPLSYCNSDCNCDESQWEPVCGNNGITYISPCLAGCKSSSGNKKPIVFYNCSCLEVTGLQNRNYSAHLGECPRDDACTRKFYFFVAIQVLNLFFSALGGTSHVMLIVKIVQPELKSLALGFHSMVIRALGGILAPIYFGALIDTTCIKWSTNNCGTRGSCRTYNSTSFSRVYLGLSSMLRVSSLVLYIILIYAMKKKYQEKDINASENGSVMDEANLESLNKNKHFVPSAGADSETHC

[14] = tested on: OATP1B1; assay: Ratio of drug uptake in HEK293 cells transfected with OATP1B1 (unknown origin) in absence of transporter inhibitor, estradiol-17beta-glucuronide to drug uptake in HEK293 cells in absence of transporter inhibitor, estradiol-17beta-glucuronide by LC-MS/MS analysis; type: ADME, cell-based; details: human, HEK293 cells transfected with OATP1B1 versus HEK293 cells

Chain of Terminal nucleotidyltransferase 4B (Homo sapiens) (Q8NDF8 whole entry): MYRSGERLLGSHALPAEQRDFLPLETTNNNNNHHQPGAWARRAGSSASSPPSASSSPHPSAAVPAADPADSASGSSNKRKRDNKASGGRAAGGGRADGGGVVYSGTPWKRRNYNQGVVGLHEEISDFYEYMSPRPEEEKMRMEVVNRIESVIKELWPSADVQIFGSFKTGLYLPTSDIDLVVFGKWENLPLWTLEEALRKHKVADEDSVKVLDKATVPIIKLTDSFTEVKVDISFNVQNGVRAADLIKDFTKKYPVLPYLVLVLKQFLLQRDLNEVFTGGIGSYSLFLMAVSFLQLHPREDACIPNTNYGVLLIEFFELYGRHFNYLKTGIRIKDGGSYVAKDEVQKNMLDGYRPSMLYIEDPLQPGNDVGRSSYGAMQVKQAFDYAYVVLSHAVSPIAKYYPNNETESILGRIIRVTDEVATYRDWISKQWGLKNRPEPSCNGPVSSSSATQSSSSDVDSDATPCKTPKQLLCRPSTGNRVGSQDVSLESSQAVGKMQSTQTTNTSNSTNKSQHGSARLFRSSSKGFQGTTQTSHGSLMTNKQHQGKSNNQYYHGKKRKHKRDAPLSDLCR
Chain of Terminal nucleotidyltransferase 4A (Homo sapiens) (Q5XG87 whole entry): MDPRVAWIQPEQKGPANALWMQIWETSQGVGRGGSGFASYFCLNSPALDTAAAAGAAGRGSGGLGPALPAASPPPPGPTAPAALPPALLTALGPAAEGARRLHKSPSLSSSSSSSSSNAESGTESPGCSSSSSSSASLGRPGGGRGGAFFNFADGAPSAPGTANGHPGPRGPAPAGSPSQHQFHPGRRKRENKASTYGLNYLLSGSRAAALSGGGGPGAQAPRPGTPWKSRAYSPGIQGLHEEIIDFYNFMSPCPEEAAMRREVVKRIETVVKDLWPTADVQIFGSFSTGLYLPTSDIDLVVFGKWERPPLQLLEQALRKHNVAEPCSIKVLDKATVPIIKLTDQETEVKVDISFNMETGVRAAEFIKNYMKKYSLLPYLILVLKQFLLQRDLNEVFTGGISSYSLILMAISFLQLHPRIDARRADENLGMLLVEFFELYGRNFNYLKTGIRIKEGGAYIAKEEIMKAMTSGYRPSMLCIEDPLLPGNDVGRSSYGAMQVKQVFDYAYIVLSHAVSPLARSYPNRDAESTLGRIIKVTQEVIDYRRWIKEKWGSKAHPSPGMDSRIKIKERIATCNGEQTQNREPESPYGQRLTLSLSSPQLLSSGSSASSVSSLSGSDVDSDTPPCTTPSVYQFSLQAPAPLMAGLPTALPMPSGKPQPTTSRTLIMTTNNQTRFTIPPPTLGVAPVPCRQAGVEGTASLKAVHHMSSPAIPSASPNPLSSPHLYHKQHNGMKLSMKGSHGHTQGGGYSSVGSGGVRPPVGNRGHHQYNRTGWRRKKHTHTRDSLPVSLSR

Row | EC50 [1] [nM] | logD at 1 h [3] | SMILES | CC50 at 96 h [2] [nM] | other results
1 | > 10000 |  | COc1cc2c(cc1OCC(=O)O)C[C@@H](C(C)C)n1cc(C(=O)O)c(=O)cc1-2 | > 10000 | 
2 | 87 |  | COc1cc2c(cc1OCCCCCC(=O)O)C[C@@H](C(C)C)n1cc(C(=O)O)c(=O)cc1-2 | > 10000 | 
3 | 4.6 | 0.7 | COc1cc2c(cc1OCCCCCCCCC(=O)O)C[C@@H](C(C)C)n1cc(C(=O)O)c(=O)cc1-2 | > 10000 | 
4 | 1010 |  | COc1cc2c(cc1OCCCC(=O)O)C[C@@H](C(C)C)n1cc(C(=O)O)c(=O)cc1-2 | > 10000 | 
5 | 1.8 | 1.39 | COCCCOc1cc2c(cc1OC)-c1cc(=O)c(C(=O)O)cn1[C@H](C(C)C)C2 | > 10000 | Papp A→B at 2 h, 1 µM [4]: 9.17 ×10⁻⁶ cm/s; Papp B→A at 2 h, 1 µM [5]: 35.8 ×10⁻⁶ cm/s; uptake ratio [6]: 0.56; Ratio [7]: 0.42; Activity [8]: Active; inhibition [9]: Dose-Dependent Effect; inhibition [10]: Dose-Dependent Effect; efflux ratio at 2 h, 1 µM [11]: 3.9; Activity [12]: Active; Ratio [13]: 0.38; uptake ratio [14]: 0.71
6 | 7.6 | 0.07 | COc1cc2c(cc1OCCCCCCCC(=O)O)C[C@@H](C(C)C)n1cc(C(=O)O)c(=O)cc1-2 | > 10000 | 
7 | 380 |  | COc1cc2c(cc1OCCCCC(=O)O)C[C@@H](C(C)C)n1cc(C(=O)O)c(=O)cc1-2 | > 10000 | 
8 | 2780 |  | COc1cc2c(cc1OCCCOCC(=O)O)C[C@@H](C(C)C)n1cc(C(=O)O)c(=O)cc1-2 | > 10000 | 

From ChEMBL document CHEMBL4808208, “Hepatoselective Dihydroquinolizinone Bis-acids for HBsAg mRNA Degradation” (ACS Med Chem Lett, 2021)
